The results in this text go back to ChEMBL document CHEMBL3991601, “The target landscape of clinical kinase drugs” (Science, 2017).

The target in assay [1] is S-adenosylmethionine synthase isoform type-2 (Homo sapiens, UniProt P31153).
Assay [2] addresses T1, Serine/threonine-protein kinase NLK (Homo sapiens, UniProt Q9UBE8).
T1 sequence (Q9UBE8 whole entry): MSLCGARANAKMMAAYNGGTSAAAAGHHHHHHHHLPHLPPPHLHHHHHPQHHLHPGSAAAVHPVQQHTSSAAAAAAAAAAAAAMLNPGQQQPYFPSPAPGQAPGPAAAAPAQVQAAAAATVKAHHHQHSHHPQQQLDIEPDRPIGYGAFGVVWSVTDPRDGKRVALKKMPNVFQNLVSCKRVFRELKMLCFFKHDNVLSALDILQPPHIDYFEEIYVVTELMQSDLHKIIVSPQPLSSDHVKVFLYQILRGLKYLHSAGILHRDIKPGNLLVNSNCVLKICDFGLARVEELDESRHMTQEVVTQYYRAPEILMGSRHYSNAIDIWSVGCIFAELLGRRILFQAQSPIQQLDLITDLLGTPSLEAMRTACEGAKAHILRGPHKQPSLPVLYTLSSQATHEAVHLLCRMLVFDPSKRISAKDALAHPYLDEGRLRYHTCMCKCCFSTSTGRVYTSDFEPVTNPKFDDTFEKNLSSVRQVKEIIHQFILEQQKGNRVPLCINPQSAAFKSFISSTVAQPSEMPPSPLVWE

The target of assay [3] is T2, Serine/threonine-protein kinase A-Raf (Homo sapiens, UniProt P10398).
T2 sequence (P10398 whole entry): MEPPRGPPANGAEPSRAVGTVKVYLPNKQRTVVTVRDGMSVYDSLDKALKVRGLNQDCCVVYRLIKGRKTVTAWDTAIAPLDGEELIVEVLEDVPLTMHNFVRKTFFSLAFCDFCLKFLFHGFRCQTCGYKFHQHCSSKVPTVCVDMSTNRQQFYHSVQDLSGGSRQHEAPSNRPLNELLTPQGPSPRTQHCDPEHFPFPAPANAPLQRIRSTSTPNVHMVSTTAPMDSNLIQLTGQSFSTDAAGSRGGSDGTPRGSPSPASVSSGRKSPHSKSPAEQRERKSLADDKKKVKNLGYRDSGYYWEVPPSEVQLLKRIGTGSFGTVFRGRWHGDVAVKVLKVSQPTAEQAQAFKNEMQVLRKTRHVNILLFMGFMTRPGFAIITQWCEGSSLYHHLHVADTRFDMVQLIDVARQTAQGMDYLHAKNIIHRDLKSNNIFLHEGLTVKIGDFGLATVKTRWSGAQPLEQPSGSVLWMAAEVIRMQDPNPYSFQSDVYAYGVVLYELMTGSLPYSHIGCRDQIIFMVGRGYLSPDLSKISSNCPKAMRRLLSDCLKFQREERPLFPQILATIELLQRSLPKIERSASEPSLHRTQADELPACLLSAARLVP

Assay [4] concerns the target Midasin (Homo sapiens, UniProt Q9NU22).
The target in assay [5] is Protein kinase C alpha type (Homo sapiens, UniProt P17252).
Assay [6] deals with LIM domain kinase 1 (Homo sapiens, UniProt P53667).
For assay [7], the target named is T3, Ras-related protein Rab-10 (Homo sapiens, UniProt P61026).
T3 sequence (P61026 whole entry): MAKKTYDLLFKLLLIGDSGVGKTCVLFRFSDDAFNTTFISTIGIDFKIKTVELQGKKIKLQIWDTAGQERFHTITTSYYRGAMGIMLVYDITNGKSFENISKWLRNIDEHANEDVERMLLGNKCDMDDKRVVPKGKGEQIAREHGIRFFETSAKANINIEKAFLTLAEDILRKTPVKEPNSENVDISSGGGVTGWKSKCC

Assay [8] deals with T4, Dynamin-like GTPase OPA1, mitochondrial (Homo sapiens, UniProt O60313).
T4 sequence (O60313 whole entry): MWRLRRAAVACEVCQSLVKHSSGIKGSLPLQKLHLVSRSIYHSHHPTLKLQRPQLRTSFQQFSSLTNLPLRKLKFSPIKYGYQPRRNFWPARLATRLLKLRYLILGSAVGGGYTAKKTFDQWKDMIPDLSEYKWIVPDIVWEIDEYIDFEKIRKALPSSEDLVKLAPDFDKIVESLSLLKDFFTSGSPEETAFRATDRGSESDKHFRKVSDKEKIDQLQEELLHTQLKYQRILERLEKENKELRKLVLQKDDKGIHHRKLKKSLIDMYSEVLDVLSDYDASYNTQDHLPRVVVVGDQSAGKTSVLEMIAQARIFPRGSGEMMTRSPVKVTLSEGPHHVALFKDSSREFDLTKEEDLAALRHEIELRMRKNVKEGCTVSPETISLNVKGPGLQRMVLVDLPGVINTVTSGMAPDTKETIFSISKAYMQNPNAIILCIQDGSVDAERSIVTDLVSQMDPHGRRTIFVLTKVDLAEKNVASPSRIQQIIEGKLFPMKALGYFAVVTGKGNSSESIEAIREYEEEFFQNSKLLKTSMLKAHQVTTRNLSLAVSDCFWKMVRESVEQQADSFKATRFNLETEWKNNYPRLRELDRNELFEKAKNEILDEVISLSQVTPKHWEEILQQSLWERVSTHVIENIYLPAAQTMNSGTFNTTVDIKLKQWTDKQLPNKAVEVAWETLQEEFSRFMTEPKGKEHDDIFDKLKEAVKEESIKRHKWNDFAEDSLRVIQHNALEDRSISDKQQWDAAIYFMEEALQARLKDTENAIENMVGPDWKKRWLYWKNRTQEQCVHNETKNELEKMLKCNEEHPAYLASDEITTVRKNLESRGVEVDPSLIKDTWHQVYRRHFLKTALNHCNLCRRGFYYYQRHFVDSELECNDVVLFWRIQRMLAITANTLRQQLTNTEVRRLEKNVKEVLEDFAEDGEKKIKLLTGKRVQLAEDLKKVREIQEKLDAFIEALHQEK

Assay [9] deals with Platelet-derived growth factor receptor beta (Homo sapiens, UniProt P09619).

Molecules are shown by their SMILES. Calls of active or inactive are those of the source.
Also: in the data inactive means no Kd found up to 30 µM.

Sequence of S-adenosylmethionine synthase isoform type-2 (P31153 whole entry, canonical isoform): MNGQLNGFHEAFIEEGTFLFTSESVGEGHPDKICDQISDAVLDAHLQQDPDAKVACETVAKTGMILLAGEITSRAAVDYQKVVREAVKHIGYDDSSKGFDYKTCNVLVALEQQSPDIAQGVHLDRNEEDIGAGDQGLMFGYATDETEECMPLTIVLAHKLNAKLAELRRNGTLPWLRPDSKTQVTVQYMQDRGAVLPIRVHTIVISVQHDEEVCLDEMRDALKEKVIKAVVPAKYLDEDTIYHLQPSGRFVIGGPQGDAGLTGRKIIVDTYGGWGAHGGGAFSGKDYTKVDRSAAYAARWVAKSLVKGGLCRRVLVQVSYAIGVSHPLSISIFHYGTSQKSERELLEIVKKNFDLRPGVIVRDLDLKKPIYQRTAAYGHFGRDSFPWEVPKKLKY
Sequence of LIM domain kinase 1 (P53667 whole entry, the tested form may be a part): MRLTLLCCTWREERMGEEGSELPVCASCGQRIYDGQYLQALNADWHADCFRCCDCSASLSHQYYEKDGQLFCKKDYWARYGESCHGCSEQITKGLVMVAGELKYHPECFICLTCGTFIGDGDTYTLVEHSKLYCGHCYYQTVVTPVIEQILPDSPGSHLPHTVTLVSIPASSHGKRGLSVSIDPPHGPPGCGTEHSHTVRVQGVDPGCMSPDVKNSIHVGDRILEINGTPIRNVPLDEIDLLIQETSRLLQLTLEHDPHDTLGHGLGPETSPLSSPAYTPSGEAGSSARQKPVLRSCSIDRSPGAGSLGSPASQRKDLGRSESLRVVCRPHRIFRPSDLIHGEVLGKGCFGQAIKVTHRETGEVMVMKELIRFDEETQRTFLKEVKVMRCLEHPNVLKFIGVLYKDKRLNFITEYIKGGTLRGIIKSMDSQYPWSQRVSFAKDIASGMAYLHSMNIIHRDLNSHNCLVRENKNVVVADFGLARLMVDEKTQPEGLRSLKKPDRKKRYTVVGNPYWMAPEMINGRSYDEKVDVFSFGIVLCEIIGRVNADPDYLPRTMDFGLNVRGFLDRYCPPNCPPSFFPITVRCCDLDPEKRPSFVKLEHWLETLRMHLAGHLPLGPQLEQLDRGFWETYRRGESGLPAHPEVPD
Sequence of Platelet-derived growth factor receptor beta (P09619 whole entry): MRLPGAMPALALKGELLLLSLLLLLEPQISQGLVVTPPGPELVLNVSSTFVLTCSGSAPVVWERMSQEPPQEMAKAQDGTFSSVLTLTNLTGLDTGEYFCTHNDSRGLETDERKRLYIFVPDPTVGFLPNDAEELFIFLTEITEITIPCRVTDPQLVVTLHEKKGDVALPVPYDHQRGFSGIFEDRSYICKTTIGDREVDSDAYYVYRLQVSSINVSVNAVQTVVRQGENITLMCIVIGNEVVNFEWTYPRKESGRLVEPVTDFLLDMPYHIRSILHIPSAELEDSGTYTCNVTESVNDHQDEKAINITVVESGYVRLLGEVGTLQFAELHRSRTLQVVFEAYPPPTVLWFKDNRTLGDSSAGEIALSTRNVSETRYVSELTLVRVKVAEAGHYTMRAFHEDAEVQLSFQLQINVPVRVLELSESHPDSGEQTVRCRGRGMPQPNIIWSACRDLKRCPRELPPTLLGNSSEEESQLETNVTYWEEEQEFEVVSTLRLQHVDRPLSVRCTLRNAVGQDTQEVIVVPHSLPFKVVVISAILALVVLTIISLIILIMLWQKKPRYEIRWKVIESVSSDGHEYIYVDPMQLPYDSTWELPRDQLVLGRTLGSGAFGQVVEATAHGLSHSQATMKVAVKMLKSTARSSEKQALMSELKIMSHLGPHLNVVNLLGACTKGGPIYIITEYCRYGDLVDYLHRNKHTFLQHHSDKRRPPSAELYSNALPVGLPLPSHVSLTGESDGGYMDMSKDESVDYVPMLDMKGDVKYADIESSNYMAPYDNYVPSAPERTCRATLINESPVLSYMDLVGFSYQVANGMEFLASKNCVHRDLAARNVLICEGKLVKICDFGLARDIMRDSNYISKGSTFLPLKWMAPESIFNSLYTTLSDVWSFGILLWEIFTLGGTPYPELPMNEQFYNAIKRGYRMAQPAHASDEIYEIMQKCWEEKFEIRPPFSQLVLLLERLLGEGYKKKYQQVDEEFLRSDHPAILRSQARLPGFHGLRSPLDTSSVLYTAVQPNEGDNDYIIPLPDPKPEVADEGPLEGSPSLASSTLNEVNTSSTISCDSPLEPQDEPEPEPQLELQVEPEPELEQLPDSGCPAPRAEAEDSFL

For `Cn1cc(-c2[nH]c3cc(NC(=O)[C@H](N)C4CCCCC4)cc4c3c2C=NNC4=O)cn1`, the Kd (as a rule, the free concentration of one partner at which half of the binding sites on the other are occupied at equilibrium, for simple one-to-one binding) in assay [1] was > 30 µM (inactive); in [2] it was > 30 µM (inactive); in [3] it was > 30 µM (inactive); in [4], > 30 µM (inactive); in assay [5], > 30 µM (inactive); in [6], 0.133 µM (active). Further, the values for the Kd in assay [7], in assay [8] and in [9] were > 30 µM (inactive), > 30 µM (inactive) and 0.1 µM (active), respectively.
In the case of `COCCN1CCN(Cc2ccc(-c3n[nH]c4c3C(=O)c3c(NC(=O)NN5CCOCC5)cccc3-4)cc2)CC1` [RGB-286638], the Kd in [1], in assay [2], in assay [3], in assay [4], in assay [5] and in assay [6] was > 30 µM (inactive) each time. Moreover, the Kd in assay [7] is > 30 µM (inactive); in assay [8], > 30 µM (inactive); in assay [9], 1.36 µM.
As to `CC(C)(O)CC(=O)NCCn1ccc2ncnc(Nc3ccc(Oc4cccc(C(F)(F)F)c4)c(Cl)c3)c21` [TAK-285], the Kd in [1] was > 30 µM (inactive); in [2], 0.816 µM; in [3], > 30 µM (inactive); in assay [4], > 30 µM (inactive); in [5], > 30 µM (inactive); in assay [6], > 30 µM (inactive). Further, the Kd in [7], in assay [8] and in assay [9] was > 30 µM (inactive) throughout.
With `C[C@@H]1COC(Nc2ccc3ncnc(Nc4ccc(OCc5nccs5)c(Cl)c4)c3c2)=N1` [VARLITINIB], the Kd in assay [1], in [2], in assay [3], in assay [4], in assay [5] and in [6] was > 30 µM (inactive) throughout. Moreover, the Kd in assay [7], in assay [8] and in [9] was > 30 µM (inactive) throughout.
As to `C=CCN(/C=C1/C(=O)O[C@H](COC)[C@@]2(C)C1=C(O)C(=O)C1=C2[C@H](OC(C)=O)C[C@]2(C)C(=O)CC[C@@H]12)CC=C` [SONOLISIB], the Kd in [1], in assay [2], in assay [3], in assay [4], in [5] and in [6] was > 30 µM (inactive) in each case. Besides, the Kd in assay [7], in [8] and in assay [9] was > 30 µM (inactive) throughout.
Regarding `O=C(NC[C@H](O)CO)c1ccncc1Nc1ccc(I)cc1F` [PIMASERTIB], the Kd in assay [1], in assay [2], in [3], in assay [4], in [5] and in assay [6] was > 30 µM (inactive) in each case. The Kd in assay [7], in assay [8] and in assay [9] was > 30 µM (inactive) in each case.
In the case of `CCc1cc2c(cc1N1CCC(N3CCOCC3)CC1)C(C)(C)c1[nH]c3cc(C#N)ccc3c1C2=O` [ALECTINIB], the Kd in [1], in assay [2], in assay [3], in [4], in assay [5] and in [6] was > 30 µM (inactive) each time. For the same compound, the Kd in [7], in [8] and in assay [9] was > 30 µM (inactive) in each case.
Turning to `Cc1c(NC(=O)OC[C@@H]2COCCN2)cn2ncnc(Nc3ccc4c(cnn4Cc4cccc(F)c4)c3)c12` [AC-480], the Kd in assay [1], in assay [2], in [3], in [4], in assay [5] and in assay [6] was > 30 µM (inactive) each time. Besides, the Kd in assay [7], in assay [8] and in assay [9] was > 30 µM (inactive) throughout.
Regarding `COc1cc(Nc2ncc(F)c(Nc3ccc4c(n3)N(COP(=O)(O)O)C(=O)C(C)(C)O4)n2)cc(OC)c1OC` [FOSTAMATINIB], the Kd in [1], in assay [2], in assay [3], in [4], in assay [5] and in assay [6] was > 30 µM (inactive) throughout. Also, the Kd in assay [7], in assay [8] and in [9] was > 30 µM (inactive) throughout.
Take `COc1cccc2cc(-c3nc([C@H]4CC[C@H](C(=O)O)CC4)n4ncnc(N)c34)[nH]c12` [OSI-027]: the Kd was > 30 µM (inactive) in assay [1]; 3.33 µM in assay [2]; > 30 µM (inactive) in [3]; > 30 µM (inactive) in [4]; > 30 µM (inactive) in assay [5]; > 30 µM (inactive) in assay [6]. For the same compound, the Kd in assay [7], in assay [8] and in assay [9] was > 30 µM (inactive) in each case.
Consider `COc1ccc2c(OCc3nnc4ccc(-c5ccccc5)nn34)ccnc2c1` [AMG-208], for which the Kd in [1], in assay [2], in assay [3], in [4], in assay [5] and in assay [6] was > 30 µM (inactive) in each case. The Kd in [7], in assay [8] and in assay [9] was > 30 µM (inactive) each time.
`CC[C@@](C)(Nc1ccnc(-c2c[nH]c3ncccc23)n1)C(=O)NCC(F)(F)F` [DECERNOTINIB]: the Kd in [1] was > 30 µM (inactive); in [2], > 30 µM (inactive); in assay [3], > 30 µM (inactive); in assay [4] it was > 30 µM (inactive); in [5], 0.117 µM (active); in assay [6], > 30 µM (inactive). In addition, the Kd in assay [7], in assay [8] and in [9] was > 30 µM (inactive) throughout.
